ChEMBL document CHEMBL5303304, “EUbOPEN Chemogenomics Library - IncuCyte” (2023)
Where “and” joins values, the source holds several entries; their conditions need not be identical. Equal values may be shown once.

Key:
Type in all cases: toxicity, cell-based
[1] = tested on: HEK-293T; assay: Incucyte cell viability with HEK293T; conditions: human, 10 µM, compound concentration 10 uM
[2] = tested on: Fibroblast; assay: Incucyte cell viability with human fibroblast; conditions: 10 µM, compound concentration 10 uM
[3] = tested on: U2OS; assay: Incucyte cell viability with U2OS; conditions: human, 10 µM, compound concentration 10 uM
Further: unitless GR value; below 1 slowed growth and below 0 cell loss.

| SMILES | Growth Rate ([1]; 0 h, replicate number 2) | Growth Rate ([1]; 6 h, replicate number 1) | Growth Rate ([1]; 12 h, replicate number 1) | Growth Rate ([1]; 18 h, replicate number 1) | Growth Rate ([1]; 18 h, replicate number 2) | Growth Rate ([1]; 24 h, replicate number 1) | Growth Rate ([2]; 6 h, replicate number 2) | Growth Rate ([2]; 12 h, replicate number 1) | Growth Rate ([2]; 12 h, replicate number 2) | Growth Rate ([2]; 18 h, replicate number 1) | Growth Rate ([2]; 18 h, replicate number 2) | Growth Rate ([2]; 24 h, replicate number 1) | Growth Rate ([2]; 24 h, replicate number 2) | Growth Rate ([3]; 6 h, replicate number 2) | Growth Rate ([3]; 12 h, replicate number 2) | Growth Rate ([3]; 18 h, replicate number 1) | Growth Rate ([3]; 18 h, replicate number 2) | Growth Rate ([3]; 24 h, replicate number 1) | Growth Rate ([3]; 24 h, replicate number 2) | Growth Rate ([1]; 24 h, replicate number 2) | also measured |
| --- | --- | --- | --- | --- | --- | --- | --- | --- | --- | --- | --- | --- | --- | --- | --- | --- | --- | --- | --- | --- | --- |
| Cl.NC(=O)c1ccccc1Nc1nc(-c2ccc(N3CCOCC3)cc2)cc2ncccc12 | -1 | -0.65 | -0.4 | -0.2 | -0.24 | -0.11 | -0.47 | 0.05 | -0.21 | 0.13 | -0.14 | 0.07 | -0.07 | 0.39 | 0.32 | 0.62 | 0.25 | 0.66 | 0.24 | – | Growth Rate ([1]; 6 h, replicate number 2): -0.55; Growth Rate ([1]; 12 h, replicate number 2): -0.36; Growth Rate ([2]; 6 h, replicate number 1): -0.14; Growth Rate ([3]; 0 h, replicate number 2): 0.86; Growth Rate ([3]; 6 h, replicate number 1): 0.76; Growth Rate ([3]; 12 h, replicate number 1): 0.57 |
| Clc1cccc(Nc2nccc(NCCCN3CCOCC3)n2)c1 | 0.13 | 0.27 | 0.34 | 0.37 | 0.82 | 0.38 | 0.14 | 0.59 | 0.39 | 0.6 | 0.57 | 0.48 | 0.53 | 0.73 | 0.73 | – | 0.82 | – | 0.7 | 0.69 | Growth Rate ([2]; 0 h, replicate number 1): -0.99; Growth Rate ([2]; 0 h, replicate number 2): -0.07; Growth Rate ([2]; 6 h, replicate number 1): 0.51; Growth Rate ([3]; 0 h, replicate number 1): -0.75 |
| COc1ccc(C(F)(F)F)cc1NC(=O)Nc1ccc(Oc2cc(C)nc(N)n2)c2ccccc12 | -0.09 | 0.58 | 0.67 | 0.55 | 0.87 | 0.6 | 0.32 | – | 0.87 | – | 0.85 | – | 0.89 | – | – | – | – | – | – | 0.81 | Growth Rate ([1]; 12 h, replicate number 2): 0.92; Growth Rate ([2]; 0 h, replicate number 1): -1; Growth Rate ([2]; 0 h, replicate number 2): -0.09; Growth Rate ([3]; 0 h, replicate number 1): -1 |
| COC1(C#Cc2ccc(Cl)c(-c3ncc4c(n3)-c3sc(NC(C)=O)nc3CC4)c2)CCN(C)CC1 | -1 | -0.41 | -0.29 | -0.17 | -0.1 | -0.05 | -0.27 | 0.03 | -0.12 | -0.03 | -0.14 | -0.11 | -0.15 | 0.62 | 0.66 | 0.64 | – | 0.78 | 0.62 | 0.05 | Growth Rate ([1]; 6 h, replicate number 2): -0.37; Growth Rate ([1]; 12 h, replicate number 2): -0.19; Growth Rate ([2]; 6 h, replicate number 1): 0.02; Growth Rate ([3]; 0 h, replicate number 1): 0.64; Growth Rate ([3]; 0 h, replicate number 2): 0.98; Growth Rate ([3]; 6 h, replicate number 1): 0.79; Growth Rate ([3]; 12 h, replicate number 1): 0.91 |
| Cc1cc(-c2cc3ncccc3c(OC[C@H]3CCCNC3)n2)ccc1N(C)C.O=C(O)C(F)(F)F | -1 | -0.57 | -0.47 | -0.34 | -0.28 | -0.25 | – | – | – | – | – | 0.79 | 0.85 | 0.47 | 0.26 | 0.28 | 0.19 | 0.47 | 0.16 | -0.18 | Growth Rate ([1]; 6 h, replicate number 2): -0.53; Growth Rate ([1]; 12 h, replicate number 2): -0.44; Growth Rate ([2]; 0 h, replicate number 1): -0.49; Growth Rate ([2]; 0 h, replicate number 2): -0.85; Growth Rate ([3]; 12 h, replicate number 1): 0.77 |
| CC(C)NC(=O)[C@H]1CCC[C@H]1Nc1nc(Nc2ccc(CN(C)C)cc2)ncc1Br.Cl | -1 | -0.59 | -0.3 | -0.04 | -0.19 | 0.2 | -0.82 | -0.42 | -0.59 | -0.37 | -0.51 | -0.38 | -0.46 | 0.17 | 0.15 | 0.3 | 0.24 | 0.32 | 0.2 | 0.01 | Growth Rate ([1]; 6 h, replicate number 2): -0.5; Growth Rate ([1]; 12 h, replicate number 2): -0.36; Growth Rate ([2]; 6 h, replicate number 1): -0.53; Growth Rate ([3]; 0 h, replicate number 1): -0.38; Growth Rate ([3]; 0 h, replicate number 2): 0.74; Growth Rate ([3]; 6 h, replicate number 1): 0.07; Growth Rate ([3]; 12 h, replicate number 1): -0.31 |
| COc1cc(C(=O)NC2CCN(C)CC2)ccc1Nc1ncc(C(F)(F)F)c(NCc2ccc(C)cc2N(C)S(C)(=O)=O)n1.O=CO.O=CO | -1 | -0.77 | -0.63 | -0.54 | -0.33 | -0.45 | -0.42 | -0.37 | -0.43 | -0.52 | -0.55 | -0.58 | -0.54 | -0.57 | -0.43 | -0.12 | -0.46 | -0.27 | -0.53 | -0.34 | Growth Rate ([1]; 6 h, replicate number 2): -0.51; Growth Rate ([1]; 12 h, replicate number 2): -0.48; Growth Rate ([2]; 6 h, replicate number 1): -0.43; Growth Rate ([3]; 0 h, replicate number 1): -0.98; Growth Rate ([3]; 0 h, replicate number 2): -0.24; Growth Rate ([3]; 6 h, replicate number 1): 0.97; Growth Rate ([3]; 12 h, replicate number 1): 0.11 |
| CC(C)NC(=O)[C@H]1CCC[C@H]1Nc1nc(Nc2ccc(C(=O)N(C)C3CCN(C)CC3)cc2)ncc1Cl | -1 | – | 0.62 and 0.41 | 0.71 and 0.79 | 0.56 | 0.85 | -0.29 | 0.11 and 0.25 | – | 0.31 and 0.66 | 0.24 and 0.59 | 0.54 | 0.47 | 0.48 | 0.53 and 0.52 | 0.54 and 0.76 | 0.6 and 0.8 | 0.63 | 0.61 and 0.9 | 0.69 and 0.88 | Growth Rate ([2]; 0 h, replicate number 1): -1; Growth Rate ([3]; 0 h, replicate number 1): 0.59; Growth Rate ([3]; 0 h, replicate number 2): 0.92 |
| CCc1ncnc(N2CCN(C(C)=O)CC2)c1C#Cc1ccc(N)nc1.Cl.Cl | -0.97 | -0.05 | 0.06 | 0.05 | 0.01 | 0.01 | 0.3 | 0.68 | 0.76 | 0.66 | 0.52 | 0.61 | 0.53 | – | 0.99 | 0.73 | 0.8 | 0.7 | 0.68 | 0.02 | Growth Rate ([1]; 6 h, replicate number 2): -0.04; Growth Rate ([1]; 12 h, replicate number 2): -0.05; Growth Rate ([3]; 0 h, replicate number 1): -0.47; Growth Rate ([3]; 6 h, replicate number 1): 0.86; Growth Rate ([3]; 12 h, replicate number 1): 0.73 |
| Cn1c(Nc2c(Cl)cccc2Cl)nc2ccc3nc[nH]c(=O)c3c21 | -1 | 0.08 | – | – | – | – | 0.1 | 0.65 | 0.35 | 0.71 | 0.42 | 0.51 | 0.33 | 0.19 | 0.74 | 0.86 | 0.83 | 0.98 | 0.85 | – | Growth Rate ([1]; 6 h, replicate number 2): 0.03; Growth Rate ([2]; 6 h, replicate number 1): 0.64; Growth Rate ([3]; 0 h, replicate number 1): -0.24; Growth Rate ([3]; 0 h, replicate number 2): 0.87; Growth Rate ([3]; 6 h, replicate number 1): 0.95; Growth Rate ([3]; 12 h, replicate number 1): 0.97 |
| CCNc1ccc(-c2nn(-c3ccccc3C)c3c2C(C)Cc2nc(NC(=O)OC)sc2-3)cn1.O=C(O)C(F)(F)F (centres undefined) | -0.93 | -0.42 | -0.41 | -0.23 | 0.03 | -0.1 | -0.7 | -0.55 | -0.37 | -0.28 | -0.19 | -0.11 | -0.06 | 0.13 | 0.24 | 0.27 | 0.25 | -0.06 | 0.07 | -0.01 | Growth Rate ([1]; 6 h, replicate number 2): 0.14; Growth Rate ([1]; 12 h, replicate number 2): -0.12; Growth Rate ([2]; 6 h, replicate number 1): -0.81; Growth Rate ([3]; 0 h, replicate number 1): -0.28; Growth Rate ([3]; 6 h, replicate number 1): 0.5; Growth Rate ([3]; 12 h, replicate number 1): 0.39 |
